What was measured:
Experiment in all cases: tryptophan fluorescence quenching, quadratic fit
Details in all cases: read-out: Association Constant / Quadratic Model Ka (×10^5 M^-1) (converted)
[1] = target: T1, BSA (bovine serum albumin) (Bos taurus, UniProt P02769); assay type: binding
T1 construct: gene ALB; not biotinylated in the Ka titrations
Source text: tryptophan fluorescence quenching, quadratic fit on BSA (bovine serum albumin)

[2] = target: T2, CRABP2 (cellular retinoic acid-binding protein 2) (Mus musculus, UniProt P22935)
T2 construct: recombinant in E. coli BL21(DE3), GST tag removed by PreScission Protease
T2 sequence (P22935 1-138): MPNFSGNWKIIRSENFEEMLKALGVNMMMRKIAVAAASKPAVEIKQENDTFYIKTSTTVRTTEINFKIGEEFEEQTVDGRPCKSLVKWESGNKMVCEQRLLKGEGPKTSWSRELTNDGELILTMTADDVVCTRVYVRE
Source text: tryptophan fluorescence quenching, quadratic fit on CRABP2 (cellular retinoic acid-binding protein 2)

[3] = target: T3, RBP1 (cellular retinol-binding protein 1) (Mus musculus, UniProt Q00915)
T3 construct: recombinant in E. coli BL21, GST tag cleaved with ProTEV protease
T3 sequence (Q00915 1-135): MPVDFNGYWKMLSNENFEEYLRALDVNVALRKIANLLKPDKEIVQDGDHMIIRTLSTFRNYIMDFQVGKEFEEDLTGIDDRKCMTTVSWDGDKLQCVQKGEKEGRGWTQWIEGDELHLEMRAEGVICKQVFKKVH
Source text: tryptophan fluorescence quenching, quadratic fit on RBP1 (cellular retinol-binding protein 1)

T1 sequence (P02769 25-607): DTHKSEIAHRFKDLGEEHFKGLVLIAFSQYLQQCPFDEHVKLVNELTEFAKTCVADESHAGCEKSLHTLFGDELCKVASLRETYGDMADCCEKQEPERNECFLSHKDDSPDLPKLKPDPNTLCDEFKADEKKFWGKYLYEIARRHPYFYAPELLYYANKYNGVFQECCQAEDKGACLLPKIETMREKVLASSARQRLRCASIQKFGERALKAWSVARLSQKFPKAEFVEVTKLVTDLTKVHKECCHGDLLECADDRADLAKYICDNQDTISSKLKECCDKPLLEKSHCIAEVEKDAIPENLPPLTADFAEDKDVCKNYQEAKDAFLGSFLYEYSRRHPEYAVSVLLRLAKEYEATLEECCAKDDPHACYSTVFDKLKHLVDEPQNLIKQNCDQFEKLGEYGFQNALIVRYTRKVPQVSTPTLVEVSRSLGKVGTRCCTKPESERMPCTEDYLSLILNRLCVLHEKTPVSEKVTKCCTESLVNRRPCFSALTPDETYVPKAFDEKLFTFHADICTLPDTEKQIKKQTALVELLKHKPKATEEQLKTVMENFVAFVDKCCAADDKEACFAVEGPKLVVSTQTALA

CC1=C(/C=C/C(C)=C/C=C/C(C)=C/C(=O)O)C(C)(C)CCC1 [atRA]
Kd [1]: 4170 nM | Kd [2]: 12.8 nM

CC(C)N1CCC(C)(C)c2cc(C#Cc3ccc(C(=O)O)cc3)ccc21 [floRA]
Kd [1]: 4760 nM | Kd [3]: 1270 nM | Kd [2]: 14.9 nM
